Data set [1] concerns RET. As to the kind of experiment: Bcl2 and Bcl2l1 expression (RT-PCR) in LSK cells upon GFL treatment. In kind it is cell-based, mouse. As to conditions: overnight GFL/GFRα stimulation; FIG. 3h. As for the experimental part: (§1) 10^6 E14.5 WT Lin^negcKit^pos cells were cultured in DMEM and starved for 2 hours. To test CREB phosphorilation upon GFL stimulation Lin^negcKit^poscells were stimulated 1 hour with 500 ng/ml of each GFL and co-receptor. LSK cells were purified by flow cytometry and stimulated overnight with GFL/GFRα combinations in order to determine Bcl2 and Bcl2l1 expression levels. For inhibition experiments cells were incubated 2 hours prior GFLs stimulation, to test CREB phosphorilation, or during overnight stimulation with GFLs, to determine Bcl2 and Bcl2l1 expression levels, with SB 202190 and PD98,059 from Sigma-Aldrich or Akt1/2, Akt Inhibitor VIII and CBP-CREB Interaction Inhibitor from Calbiochem. Lin^negcKit^pos cells were stimulated with GFL/GFRα for 120 hours and 2.5×10^5 CD45.2^posLin^negcKit^pos cells were sequentially analysed by flow cytometry and transplanted into lethally irradiated hosts with a radio-protective dose 2.5×10^5 CD45.1 BM cells. […] When analysed by flow cytometry haematopoietic progenitors were further stained with an LSK antibody cocktail.
Real-time PCR analysis: RNA was extracted from cell suspension using RNeasy Mini Kit or RNeasy Micro Kit (Qiagen). […] Variance was analyzed using F-test. […] Kaplan-Meier survival curves were analyzed using a log rank test. […]

In data set [2] the test system is RET. The data set is described as follows: Flow cytometry of kinase/CREB phosphorylation in LSK cells upon GFL stimulation. The data set is classed as cell-based, mouse. As to conditions: GFLs for 1 h, FIG. 3g. The protocol: Intracellular stainings were done using BrdU Flow Kit and anti-BrdU (3D4), 7AAD, anti-Ki-67 (B56), anti-S6 (pS235/pS236) (N7-548) and anti-Akt (pT308) (JI-223.371) from BD Pharmingen, anti-human RET (132507) from R&D Systems, anti-PIP3 (Z-P345) from Echelon Biosciences, anti-CREB (pS133) (87G3), anti-p38 (pT180/Y182) (28B10), anti-Akt (pS473) (D9E) and anti-ERK1/2 (pT202/pY204) (D13.14.4E) from Cell Signaling Technology.
as §1, with “For inhibition experiments cells were incubated 2 hours prior GFLs stimulation, to test CREB phosphorilation, or during overnight stimulation with GFLs, to determine Bcl2 and Bcl2l1 expression levels, with SB 202190 and PD98,059 from Sigma-Aldrich or Akt1/2, Akt Inhibitor VIII and CBP-CREB Interaction Inhibitor from Calbiochem.” left out
Background: A flow cytometer gives signals particle by particle.

In the next data set the test system is lethally irradiated mice. As to the kind of experiment: Competitive transplantation of GFL pre-treated progenitors into lethally irradiated hosts. The data set is classed as in vivo, mouse. As to conditions: FIG. 4e-g. As for the experimental part:
Mice: C57BL/6J (CD45.2 and CD45.1), Rag1^−/− (CD45.2 and CD45.1)^29, Vav1-iCre^11, Gfra1^−/−22, Gfra2^−/−24, Gfra3^−/−23, Ret^MEN2B20 and Ret^−/−9 were on a C57BL/6J genetic background. All mice strains were bred and maintained at IMM animal facility. Animal procedures were performed in accordance to national and institutional guidelines. Generation of Ret Conditional Knockout Mice: To generate mice harbouring a conditional Ret knock-out allele we engineered a targeting construct that firstly, included the introduction of a floxed 2.1 kb, Neomycin resistance (Neo^r) cassette under the control of the phosphoglycerate kinase-1 (PGK) promoter and a polyA tail (pA). This cassette (PGK-NEO^r-pA) was inserted approximately 4.5 kb upstream at the Xho I site of the pBluescript KS (pBS KS) vector that carried approximately 13 kb of the 5′ end of mouse Ret genomic locus flanking exon 1. […] Colony-Forming Units Assays: 5×10^3 E14.5 Lin^negcKit^pos cells MACS purified (MiltenyiBiotec) from WT, Ret^−/− or Ret^MEN2B were cultured in M3434 (Stem Cell Technologies) and scored at day 8 to 10 by flow cytometry and microscope analysis. 3×10^4 E14.5 Lin^negcKit^pos cells were MACS (MiltenyiBiotec) purified from WT, Ret^−/− or Ret^MEN2B and were injected into lethally irradiated mice (9Gy) and CFUs scored after 8 to 10 days by flow cytometry and microscope analysis. […]

For a further data set, the system named is E14.5 LSK cells. The data set is described as follows: Survival (AnnexinV) of LSK/HSC cells cultured with GFL/GFRα. In kind it is cell-based, mouse. The settings on record: versus conventional medium / medium alone, FIG. 3d-e, FIG. 10c. As for the experimental part: 10^6 E14.5 WT Lin^negcKit^pos cells were cultured in DMEM and starved for 2 hours. To test CREB phosphorilation upon GFL stimulation Lin^negcKit^poscells were stimulated 1 hour with 500 ng/ml of each GFL and co-receptor. LSK cells were purified by flow cytometry and stimulated overnight with GFL/GFRα combinations in order to determine Bcl2 and Bcl2l1 expression levels. For inhibition experiments cells were incubated 2 hours prior GFLs stimulation, to test CREB phosphorilation, or during overnight stimulation with GFLs, to determine Bcl2 and Bcl2l1 expression levels, with SB 202190 and PD98,059 from Sigma-Aldrich or Akt1/2, Akt Inhibitor VIII and CBP-CREB Interaction Inhibitor from Calbiochem. Lin^negcKit^pos cells were stimulated with GFL/GFRα for 120 hours and 2.5×10^5 CD45.2^posLin^negcKit^pos cells were sequentially analysed by flow cytometry and transplanted into lethally irradiated hosts with a radio-protective dose 2.5×10^5 CD45.1 BM cells. To detect Annexin V, 4×10^4 E14.5 WT or Ret^−/−Lin^negckit^pos cells per well were cultured overnight in DMEM alone or with GFL/GFRα. When analysed by flow cytometry haematopoietic progenitors were further stained with an LSK antibody cocktail.

The next data set has as its system HSCs. The data set is described as follows: HSC expansion in culture with RET ligands (recovered LSKs and HSCs treated with GFLs for 4 days). The data set is classed as cell-based, mouse. The settings on record: for HSC expansion in culture (true HSCs recovered): versus conventional medium only, FIG. 3d.

For the substance “glial cell-line derived neurotrophic factor (GDNF) ligands [GFLs]”, in the data set with RET [1], the “Bcl2/Bcl2l1 expression by LSKs” value was “increased Bcl2/Bcl2l1 expression”. In the data set with RET [2], the “ERK1/2, PI3K/Akt phosphorylation in LSKs” value is reported as “stable”. For the same substance, in the data set on RET [2] (FIG. 10e), the “p38/MAP kinase and CREB phosphorylation in LSKs” value was “rapid p38/MAP kinase and CREB phosphorylation”. In addition, in the data set with lethally irradiated mice (E14.5 LSKs treated with GFLs, transplanted with competitor CD45.1 BM, versus untreated), the “transplantation fitness and HSC engraftment” value is “strikingly increased transplantation fitness and HSC engraftment”. Besides, the “increase in transplantation efficiency of expanded HSCs” value in the data set on lethally irradiated mice (versus HSCs expanded in conventional medium) was “circa 300 fold”. The “LSK and HSC survival in culture” value was “efficiently increased LSK and HSC survival” with E14.5 LSK cells; “survive almost three times better” in the data set on E14.5 LSK cells (listed as RET ligands). Further, the “differentiation of cells in expansion culture” value in the data set with HSCs (RET agonist treatment) was “do not alter the differentiation of cells”. Moreover, the entries for the “HSC expansion in culture (true HSCs recovered)” value with HSCs (listed as RET agonist) and with HSCs (listed as RET ligands) were “three times more true HSCs” and “three times higher”, respectively. Also, the “number of cells recovered in expansion culture” value with HSCs (versus current conventional medium) is “duplicate the number or cells recovered”. In addition, the “increase of bona fide HSCs that maintain their stemness” value in the data set with HSCs (versus current state-of-the-art expansion methods) came to 20 fold.

Values taken from patent publication US9821026B2, “Use of RET agonist molecules for haematopoietic stem cell expansion protocols and transplantation therapy and a RET agonist kit” (Instituto de Medicina Molecular, priority 2012, dated 2017).
